Results on eleven molecules are retold here after ChEMBL document CHEMBL1201862, “PubChem BioAssay data set” (2004).

Assay in all cases: DTP human tumour cell line panel, 48 h
The subject of assay [1] is T47D.
Assay [2] deals with MOLT-4.
The test system of assay [3] is NCI/ADR-RES.
Assay [4] concerns SF-295.
Assay [5] concerns RPMI-8226.
Assay [6] relates to SK-MEL-2.
The test system of assay [7] is HT-29.
Assay [8] concerns A498.
Assay [9] deals with A549.
The test system of assay [10] is MDA-MB-231.
In assay [11] the test system is BT-549.
Assay [12] concerns LOX IMVI.
In assay [13] the test system is CAKI-1.
Assay [14] relates to SN12C.
Assay [15] deals with EKVX.
In assay [16] the test system is Malme-3M.
The subject of assay [17] is NCI-H226.
In assay [18] the test system is UACC-257.
For assay [19], the system named is HL-60.

Counter-ions that a name gives are not always drawn.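 Five compound concentrations were applied to cells in 96-well plates for 48 hours; endpoints were derived by simple linear interpolation of the resulting dose-response curve. The concentration for 50% growth inhibition is given as GI50.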 The source made the active and inactive calls. No stated cut-off is given here; in the data, active = GI50 up to about 1.1 µM and inactive = higher.

In general, GI50 refers to the concentration at which growth is held to half of that of the control. In the case of `Cc1nc(Cl)c(CBr)c(Cl)n1`, the GI50 in assay [1] was 1.88 µM (inactive); in [2], 0.33 µM (active); in assay [3], 2.41 µM (inactive); in assay [4], 8.45 µM (inactive); in assay [5], 0.889 µM (active); in assay [6], 1.87 µM (inactive). For the same molecule, the 50% growth inhibitory concentration (GI50) in assay [7] was 0.728 µM (active); in assay [8] it was 11.7 µM (inactive); in assay [9], 6.3 µM (inactive); in assay [10], 1.95 µM (inactive); in assay [11], 0.272 µM (active); in [12] it was 0.585 µM (active). The GI50 in assay [13] is 2.28 µM (inactive); in [14], 1.73 µM (inactive); in assay [15], 5.87 µM (inactive); in assay [16], 0.838 µM (active); in assay [17], 2.7 µM (inactive); in assay [18], 0.832 µM (active).

On to `O=C(N/N=C1\CCc2ccccc2C1)N/N=C1\CCc2ccccc2C1`, for which the GI50 in [1], in assay [2], in [3], in [4], in assay [5] and in assay [6] was > 10 µM (inactive) each time. Moreover, the GI50 in assay [7], in assay [9], in assay [19], in assay [10], in assay [11] and in [13] was > 10 µM (inactive) throughout. Besides, the GI50 in [14], in [15], in [16], in assay [17] and in assay [18] was > 10 µM (inactive) throughout.

In the case of `CC1(C)CO[P@@](=S)(c2ccccn2)O[C@@H]1c1ccccc1`, the GI50 in [1] is > 100 µM (inactive); in [2], 44.5 µM (inactive); in [3] it was 75 µM (inactive); in assay [4], > 100 µM (inactive); in assay [7], > 100 µM (inactive); in [8], > 100 µM (inactive). Further, the GI50 in [9], in [19], in assay [10], in assay [11], in assay [12] and in assay [13] was > 100 µM (inactive) throughout. The GI50 is > 100 µM (inactive) in [14]; 96.8 µM (inactive) in assay [15]; > 100 µM (inactive) in assay [16]; 76.2 µM (inactive) in assay [17]; > 100 µM (inactive) in assay [18].

For the molecule `NCCCCNCCCN` [SPERMIDINE TRIHYDROCHLORIDE], the GI50 is > 100 µM (inactive) in assay [1]; 51.3 µM (inactive) in [2]; > 100 µM (inactive) in assay [3]; > 100 µM (inactive) in [4]; > 100 µM (inactive) in assay [6]; > 100 µM (inactive) in assay [7]. Also, the GI50 in assay [8], in assay [9], in assay [19], in assay [10], in [11] and in [12] was > 100 µM (inactive) in each case. Moreover, the GI50 is 1.71 µM (inactive) in assay [13]; > 100 µM (inactive) in assay [15]; > 100 µM (inactive) in assay [16]; > 100 µM (inactive) in assay [17]; > 100 µM (inactive) in assay [18].

In the case of `C=C1C(=O)C23CC1CCC2C12CO[C@H](O)[C@H]1C(C)(C)[C@H](OC(C)=O)C[C@H]2OC3=O` (some centres not stated), the GI50 in assay [1] was 19.7 µM (inactive); in assay [2], 15.2 µM (inactive); in [3] it was 28.1 µM (inactive); in assay [4], > 100 µM (inactive); in assay [5] it was 76.7 µM (inactive); in [6], 15.3 µM (inactive). Further, the GI50 in assay [7] is 13.4 µM (inactive); in assay [9], > 100 µM (inactive); in assay [19], 16.6 µM (inactive); in assay [10], 19.8 µM (inactive); in [11], 9.48 µM (inactive); in assay [12], 18.1 µM (inactive). Further, the GI50 is 15.2 µM (inactive) in assay [13]; 21.1 µM (inactive) in assay [14]; 15.1 µM (inactive) in [15]; 13.3 µM (inactive) in [16]; > 100 µM (inactive) in [17]; 30.3 µM (inactive) in assay [18].

For the molecule `Cc1ccc2c(c1)S(=O)(=O)c1ccc3ccccc3c1N2`, the GI50 in assay [1], in assay [2], in assay [3], in assay [4], in assay [6] and in [7] was > 100 µM (inactive) in each case. Also, the GI50 in [8], in [9], in assay [19], in [10], in assay [11] and in [12] was > 100 µM (inactive) each time. In addition, the GI50 in assay [13], in [14], in assay [15], in assay [17] and in assay [18] was > 100 µM (inactive) in each case.

With `C=CCC1C(O[Si](C)(C)C(C)(C)C)C(CO[Si](C)(C)C(C)(C)C)OC1n1ccc(=O)[nH]c1=O` (configuration not stated), the GI50 in assay [1] is 1.3 µM (inactive); in assay [2], 0.597 µM (active); in assay [3], 1.66 µM (inactive); in [4] it was 1.78 µM (inactive); in assay [5] it was 1.4 µM (inactive); in [6], 2.14 µM (inactive). In addition, the GI50 in assay [7] was 1.44 µM (inactive); in assay [8], 2.03 µM (inactive); in assay [9], 1.38 µM (inactive); in assay [10], 1.79 µM (inactive); in assay [11] it was 1.93 µM (inactive); in assay [12] it was 0.705 µM (active). Moreover, the GI50 was 1.63 µM (inactive) in [13]; 1.38 µM (inactive) in [14]; 1.41 µM (inactive) in [15]; 1.51 µM (inactive) in assay [17]; 1.68 µM (inactive) in [18].

For the molecule `CCCCNC(=O)C1=C(C)NC(C)=C(C(=O)NCCCC)C1`, the GI50 in assay [1], in assay [2], in assay [3], in [4], in [6] and in assay [7] was > 100 µM (inactive) in each case. For the same molecule, the GI50 was > 100 µM (inactive) in [8]; > 100 µM (inactive) in assay [9]; 71.1 µM (inactive) in [19]; > 100 µM (inactive) in assay [10]; > 100 µM (inactive) in [11]; > 100 µM (inactive) in assay [12]. Also, the GI50 is > 100 µM (inactive) in assay [13]; > 100 µM (inactive) in assay [14]; 58.7 µM (inactive) in [15]; > 100 µM (inactive) in [17]; > 100 µM (inactive) in [18].

With `COc1ccc(OC)c(C2Cc3cnc4nc(N)nc(N)c4c3C2)c1` (configuration not stated), the GI50 in assay [1] was 25 µM (inactive); in [2] it was 24.5 µM (inactive); in [3], > 100 µM (inactive); in assay [4], 28.6 µM (inactive); in [5] it was 29.6 µM (inactive); in assay [6], 21.1 µM (inactive). Besides, the GI50 in assay [7] was 20.8 µM (inactive); in assay [8] it was 16.9 µM (inactive); in assay [9], 41.5 µM (inactive); in assay [19], 20.4 µM (inactive); in assay [10] it was 23.7 µM (inactive); in assay [11], 22.8 µM (inactive). In addition, the GI50 was 19.8 µM (inactive) in [12]; 76.9 µM (inactive) in [13]; 21.7 µM (inactive) in assay [14]; 25.6 µM (inactive) in assay [15]; 20.8 µM (inactive) in [16]; 18.3 µM (inactive) in assay [18].

Consider `COc1ccc2c(c1)[C@@H]1c3cc(OC)c(OC)cc3CCN1CCC2`, for which the GI50 is 31.6 µM (inactive) in assay [1]; 33.3 µM (inactive) in assay [2]; > 100 µM (inactive) in assay [3]; > 100 µM (inactive) in [4]; 54.8 µM (inactive) in assay [5]; > 100 µM (inactive) in assay [6]. In addition, the GI50 in [7] is 93.1 µM (inactive); in assay [8] it was > 100 µM (inactive); in assay [9] it was > 100 µM (inactive); in [19] it was > 100 µM (inactive); in assay [10] it was > 100 µM (inactive); in [11], 68.9 µM (inactive). The GI50 was 98.4 µM (inactive) in [12]; > 100 µM (inactive) in [13]; > 100 µM (inactive) in [14]; > 100 µM (inactive) in [15]; > 100 µM (inactive) in assay [16]; 19.7 µM (inactive) in assay [18].

For the molecule `COC(=O)c1c(O)ccc2c1c1c(n2CCc2ccc(OC)c(OC)c2)C(=O)c2ccccc2C1=O`, the GI50 in assay [1] is 12 µM (inactive); in assay [2], 9.25 µM (inactive); in assay [3], 10.8 µM (inactive); in assay [4], 19.6 µM (inactive); in assay [5], 6.55 µM (inactive); in [6], 16.4 µM (inactive). For the same molecule, the GI50 in [7] is 3.13 µM (inactive); in assay [8], 15.9 µM (inactive); in [9], 14.5 µM (inactive); in assay [19], 23.4 µM (inactive); in assay [10], 22.4 µM (inactive); in assay [11], 10.9 µM (inactive). In addition, the GI50 in [13] is 17.5 µM (inactive); in [14], 21.9 µM (inactive); in [15], 20.5 µM (inactive); in assay [16], 14 µM (inactive); in assay [17] it was 19.6 µM (inactive); in assay [18], 16.6 µM (inactive).
